{"source": "patent US20160264565A1", "about": "“CRYSTALLINE DASATINIB PROCESS” (SHILPA MEDICARE LIMITED, priority 2013, published 2016)", "key": {"[1]": {"assay": "Stability on handling and storage", "assay_type": "physicochemical", "settings": "handle and store for longer time", "procedure": "(§1) This stable form thus, offers various advantages in terms of storage, shelf life and favorable impurity profile.\n(§2) The new stable crystalline Form-SDI is characterized by 3-methylbutan-1-ol content in range of 10-16% w/w. […] 3-methylbutan-1-ol content even on drying for more than 20 hrs at 60-65° C. This offers advantages for large scale manufacturing in terms of handling, storage, shelf life and favorable impurity profile."}, "[2]": {"assay": "Stability of the crystal form on drying", "assay_type": "physicochemical", "settings": "drying for more than 20 hrs at 60-65° C.", "procedure": "as §1, §2"}}}
{"molecule": "Cc1nc(Nc2ncc(C(=O)Nc3c(C)cccc3Cl)s2)cc(N2CCN(CCO)CC2)n1", "note": "[Crystalline Form-SDI of Dasatinib, N-(2-chloro-6-methylphenyl)-2-[[6-[4-(2-hydroxyethyl)-1-piperazinyl]-2-methyl-4-pyrimidinyl]amino]-5-thiazolecarboxamide]", "values": [{"measurement": "change in morphology and physicochemical characteristics on handling and storage for longer time", "setting": "[1]", "result": "without any significant or measurable change"}, {"measurement": "change in morphology and physicochemical characteristics on handling and storage for longer time", "setting": "[1]; listed as Form-SDI", "result": "without any measurable change"}, {"measurement": "stoichiometry (3-methylbutan-1-ol content) on drying", "setting": "[2]", "result": "retains its stoichiometry"}]}
